From PMC7501227, “Flatfishes colonised freshwater environments by acquisition of various DHA biosynthetic pathways” (Communications Biology, 2020)
Each block holds one compound with its values, some of them ahead of it.

What was measured:
Fads2a (H. mentalis) = biological target: T1, Fads2a (H. mentalis) (Hypoclinemus mentalis, UniProt A0A7G1GDA4); test: yeast expression, GC of FAMEs, % conversion; assay type: cell-based; settings: Δ6 desaturation; yeast culture 48 h, 30 °C
T1 construct: full ORF in pYES2, 442 residues, expressed in S. cerevisiae INVSc1

Fads2 (A. finis) [1] = biological target: T2, Fads2 (A. finis) (Apionichthys finis, UniProt A0A7G1GDB3); settings: Δ6 desaturation; yeast culture 48 h, 30 °C
Fads2 (A. finis) [2] = biological target: T2, Fads2 (A. finis); test: yeast co-expression with zebrafish Elovl2, GC of FAMEs; assay type: cell-based; design: full ORF in pYES2, expressed in S. cerevisiae INVSc1; settings: Δ6 desaturation; 24:5n-3 formed in the yeast from 22:5n-3 by zebrafish Elovl2; normalised to 18:3n-3
Elovl5 (G. melas) = biological target: T3, Elovl5 (G. melas) (Gymnachirus melas, UniProt A0A7G1GDB9); test: yeast expression, GC of FAMEs, % conversion; assay type: cell-based; settings: elongation of C18 substrate; yeast culture 48 h, 30 °C
T3 construct: full ORF in pYES2, expressed in S. cerevisiae INVSc1
T3 sequence (A0A7G1GDB9 1-294): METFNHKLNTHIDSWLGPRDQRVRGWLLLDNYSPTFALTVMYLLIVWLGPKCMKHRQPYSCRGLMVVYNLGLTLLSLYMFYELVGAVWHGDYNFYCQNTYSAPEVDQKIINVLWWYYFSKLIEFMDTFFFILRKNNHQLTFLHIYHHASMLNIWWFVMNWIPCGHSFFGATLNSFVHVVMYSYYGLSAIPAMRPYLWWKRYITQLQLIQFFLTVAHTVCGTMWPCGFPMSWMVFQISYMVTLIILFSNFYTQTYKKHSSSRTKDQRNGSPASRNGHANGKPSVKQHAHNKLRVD

Elovl5 (T. maculatus) = biological target: T4, Elovl5 (T. maculatus) (Trinectes maculatus, UniProt A0A7G1GDF5); test: yeast expression, GC of FAMEs, % conversion; assay type: cell-based; settings: elongation of C18 substrate; yeast culture 48 h, 30 °C
T4 construct: full ORF in pYES2, expressed in S. cerevisiae INVSc1
T4 sequence (A0A7G1GDF5 1-294): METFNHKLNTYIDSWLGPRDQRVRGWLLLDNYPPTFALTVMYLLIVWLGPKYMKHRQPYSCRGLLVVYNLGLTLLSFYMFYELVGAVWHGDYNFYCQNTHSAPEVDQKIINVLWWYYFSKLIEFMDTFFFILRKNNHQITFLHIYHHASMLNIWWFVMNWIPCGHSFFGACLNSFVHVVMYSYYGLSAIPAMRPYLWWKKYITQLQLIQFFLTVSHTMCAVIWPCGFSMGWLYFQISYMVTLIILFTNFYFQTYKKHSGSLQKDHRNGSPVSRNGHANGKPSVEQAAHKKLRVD

Elovl5 (H. mentalis) = biological target: T5, Elovl5 (H. mentalis) (Hypoclinemus mentalis, UniProt A0A7G1GDF4); test: yeast expression, GC of FAMEs, % conversion; assay type: cell-based; settings: elongation of C18 substrate; yeast culture 48 h, 30 °C
T5 construct: full ORF in pYES2, expressed in S. cerevisiae INVSc1
T5 sequence (A0A7G1GDF4 1-294): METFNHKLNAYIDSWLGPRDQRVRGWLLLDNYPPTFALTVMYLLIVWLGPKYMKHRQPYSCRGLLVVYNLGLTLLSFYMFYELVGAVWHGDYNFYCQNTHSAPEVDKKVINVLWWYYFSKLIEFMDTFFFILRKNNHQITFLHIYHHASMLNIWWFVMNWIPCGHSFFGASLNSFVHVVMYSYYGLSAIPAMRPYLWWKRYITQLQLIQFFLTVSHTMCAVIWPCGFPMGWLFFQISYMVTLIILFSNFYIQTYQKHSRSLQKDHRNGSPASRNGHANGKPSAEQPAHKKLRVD

T2 sequence (A0A7G1GDB3 entry or part of it): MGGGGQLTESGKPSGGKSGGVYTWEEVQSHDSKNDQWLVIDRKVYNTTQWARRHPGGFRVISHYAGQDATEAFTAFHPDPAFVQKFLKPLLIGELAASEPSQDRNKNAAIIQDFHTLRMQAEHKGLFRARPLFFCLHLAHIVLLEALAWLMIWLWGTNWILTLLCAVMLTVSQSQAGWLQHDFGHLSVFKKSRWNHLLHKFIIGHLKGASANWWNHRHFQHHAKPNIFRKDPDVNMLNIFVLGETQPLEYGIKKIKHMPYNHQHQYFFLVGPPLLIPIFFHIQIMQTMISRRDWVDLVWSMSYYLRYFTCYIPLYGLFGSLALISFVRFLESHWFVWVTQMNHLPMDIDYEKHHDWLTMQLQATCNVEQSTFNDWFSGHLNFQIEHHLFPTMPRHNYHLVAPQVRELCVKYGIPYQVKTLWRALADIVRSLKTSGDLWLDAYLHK
T1 sequence (A0A7G1GDA4 entry or part of it): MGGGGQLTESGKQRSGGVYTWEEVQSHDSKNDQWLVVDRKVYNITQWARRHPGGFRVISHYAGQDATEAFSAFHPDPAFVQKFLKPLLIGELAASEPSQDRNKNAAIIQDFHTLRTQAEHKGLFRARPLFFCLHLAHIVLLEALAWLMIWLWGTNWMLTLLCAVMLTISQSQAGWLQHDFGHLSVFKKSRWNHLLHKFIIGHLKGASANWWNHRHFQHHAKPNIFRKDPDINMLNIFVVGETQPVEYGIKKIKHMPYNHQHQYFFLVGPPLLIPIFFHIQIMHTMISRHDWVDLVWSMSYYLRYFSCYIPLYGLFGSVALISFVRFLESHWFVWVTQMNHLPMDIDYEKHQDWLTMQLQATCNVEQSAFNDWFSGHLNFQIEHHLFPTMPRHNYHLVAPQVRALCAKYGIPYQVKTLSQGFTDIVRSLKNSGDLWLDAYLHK

yeast expression, GC of FAMEs, % conversion (Fads2 (A. finis) [1]): The Fads2 isolated from A. finis showed
Structure (SMILES): CC/C=C\C/C=C\C/C=C\CCCCCCCC(=O)O [α-linolenic acid]
yeast expression, GC of FAMEs, % conversion (Fads2a (H. mentalis)): The two Fads2, namely Fads2a and Fads2b, showed distinct activities

Structure (SMILES): CC/C=C\C/C=C\C/C=C\C/C=C\C/C=C\CCCCCCCC(=O)O [24:5n − 3]
yeast co-expression with zebrafish Elovl2, GC of FAMEs (Fads2 (A. finis) [2]): desaturation at the highest efficiency among the four species

Structure (SMILES): CC/C=C\C/C=C\C/C=C\C/C=C\CCCCC(=O)O [18:4n − 3]
yeast expression, GC of FAMEs, % conversion (Elovl5 (G. melas)): The G. melas Elovl5 exhibited activity towards C18 to C22 substrates
yeast expression, GC of FAMEs, % conversion (Elovl5 (T. maculatus)): The Elovl5 showed elongase activities towards C18 to C22 substrates
yeast expression, GC of FAMEs, % conversion (Elovl5 (H. mentalis)): The Elovl5 performed elongations of C18 to C22 substrates
